Laboratory results: patent EP2468882A1, “Aurora kinase polypeptides for identifying fungicidal compounds” (Bayer CropScience AG, priority 2010, dated 2012)
pIC50: −log10 of the molar value.

Tests used:
[1] = target: Komplex aus SEQ ID NO: 12 und SEQ ID NO: 16 (Mycosarcoma maydis (Ustilago maydis), UniProt A0A0D1E894); test: IMAP fluorescence polarisation assay, inhibition of Aurora kinase (AK/AKA complex); format: biochemical, U. maydis; details: final enzyme concentration 2 ng/µl, final ATP 35 µM, reaction time 50 min
From the text: Assay 3: Für den kommerziell erhältlichen IMAP Assay (Molecular Devices) sind 2 Substrate für humane Aurorakinasen (Kemptide, Cat #R7331, Sequenz 5TAMRA-LRRASLG-OH und PKAtide, Cat #R7250, Lot #130188, Sequenz 5FAM-GRTGRRNSI-NH2) kommerziell erwerbbar. Der Assay wurde nach Herstellerangaben durchgeführt. • IMAP Progressive Binding Reagent: Cat #R7284, Lot #143859 • IMAP Progressive Binding Buffer A: Cat #R7285, Lot #42898 • IMAP 5x Reaction Buffer: Cat #R7206, Lot #33060
Der IMAP Fluoreszenz-Polarisations-Assay (Molecular Devices) beruht auf der spezifschen, hochafmen Interaktion zwischen Phosphatgruppen und trivalenten Metallionen. Durch die Kinasereaktion wird ein fluoreszentes Substrat phosphoryliert, welches daraufhin von den in der Stop-Lösung enthaltenen Metall-Kügelchen spezifisch gebunden wird. Durch diese Interaktion erhöht sich die Fluoreszenzpolarisation, was die Bestimmung der Kinaseaktivität ermöglicht. Der Assay wurde nach Angaben des Herstellers wie folgt ausgeführt: • 1 Vol. Inhibitor in 4% DMSO bzw. 4% DMSO • 1 Vol. Enzymlösung • 2 Vol. ATP/Substrat • 12 Vol. Stoplösung • Inkubation bei RT 30 min.
Enzymlösung: z. […]

[2] = test system: U. maydis; test: ED50 determination, growth inhibition of U. maydis in liquid culture; format: cell-based; details: concentration at which growth in liquid culture is inhibited by 50%; 3 days, 20°C, OD at 600 nm
Procedure: Der ED50 Wert ist die Konzentration einer Verbindung, bei der das Wachstum von U. maydis in Flüssigkultur zu 50% gehemmt wird. Verbindungen für ED50-Bestimmungen wurden in Methanol + 4 g/l Emulgator (z. B. PS 16 von Bayer AG) zu 666,67facher Endkonzentration gelöst. 15 µl jeder Verbindung werden in 7 Konzentrationen bei getrocknet. Flüssigkulturen von U. maydis in Difco Potato Dextrose Broth (BD, Cat No #254920) wurden auf eine OD600 ~ 0,1 eingestellt und je 200 µl dieser Suspension zugegeben. Die Kulturen wurden 3 Tage bei 20°C, 600 Upm und 80% Luftfeuchte inkubiert. Anschließend wurde die OD bei 600 nm bestimmt und gegen die Inhibitor-Konzentration der Verbindung 1 aufgetragen. Als positive Kontrolle wurde Euparen (Dichlorfluarid; CAS 1085-98-9) verwendet, als negative Kontrolle Methanol + PS 16 ohne Inhibitor. Aus der gemessenen OD600 wurde der ED50-Wert bestimmt (Abb. 5). Der ED50 Wert der Verbindung 1 wurde zu 21,8 ppm ermittelt, der ED50 Wert von Dichlorfluarid wurde zu 1 ppm ermittelt. [formula] [formula] [formula] [formula] [formula] [formula] [formula] [formula] [formula] [formula] [formula] [formula] [formula] [formula] [formula] [formula] [formula] [formula] [formula] [formula] [formula] [formula] [formula] [formula] [formula] [formula] [formula] [formula]

Chain of Komplex aus SEQ ID NO: 12 und SEQ ID NO: 16 (A0A0D1E894 entry or part of it): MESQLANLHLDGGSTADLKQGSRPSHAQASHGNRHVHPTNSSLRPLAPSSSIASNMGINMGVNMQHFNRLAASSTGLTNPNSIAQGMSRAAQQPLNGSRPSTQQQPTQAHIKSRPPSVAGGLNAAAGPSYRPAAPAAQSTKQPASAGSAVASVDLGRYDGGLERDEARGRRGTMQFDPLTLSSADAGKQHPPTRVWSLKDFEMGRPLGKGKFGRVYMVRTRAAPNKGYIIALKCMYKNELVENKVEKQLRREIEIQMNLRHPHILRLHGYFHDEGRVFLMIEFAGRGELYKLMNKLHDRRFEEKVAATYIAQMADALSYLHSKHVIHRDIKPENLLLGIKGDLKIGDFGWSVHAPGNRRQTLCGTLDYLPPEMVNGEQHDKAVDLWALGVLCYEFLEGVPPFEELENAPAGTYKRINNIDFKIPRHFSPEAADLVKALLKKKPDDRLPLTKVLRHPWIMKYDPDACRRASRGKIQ

COCCOc1ccc(Nc2ncc(Cl)c(NC3CC3)n2)cc1 [Verbindung 1]
pIC50 [1]: 8.06
ED50 Wert [2]: 21,8 ppm

CN(C)S(=O)(=O)N(SC(F)(Cl)Cl)c1ccccc1 [Dichlorfluarid]
ED50 Wert [2]: 1 ppm

CN[C@@H]1C[C@H]2O[C@@](C)([C@@H]1OC)n1c3ccccc3c3c4c(c5c6ccccc6n2c5c31)C(=O)NC4 [Staurosporin]
pIC50 [1]: 8.68
